This is an account of results in US20250376484A1, “PRMT5 INHIBITORS AND USES THEREOF” (Gilead Sciences, Inc., priority 2024, published 2025).

Series [1] has as its target T1, MDR1 (Homo sapiens, UniProt P08183).
T1 construct: host or cells: MDCK cells with canine Pgp knocked out and MDR1 knocked in (cPgp-KO-MDR1-KI)
Briefly: MDR1/BCRP assay: efflux ratio in cPgp-KO-MDR1-KI cells. The series is classed as in vitro ADME. As to conditions: dog, MDCK-MDR1, efflux ratio Papp (B-to-A)/Papp (A-to-B), 2-hour time point, read-out: cPgp-KO-MDR1-KI (ER). On the procedure: (§1) cPgp-KO-MDCK-WT, cPgp-KO-MDR1-KI, and cPgp-KO—BCRP—KI cells (all from Sigma) were cultured in Dulbecco's Modification of Eagle's Medium (DMEM) with 4.5 g/L glucose, sodium pyruvate, and GlutaMAX (Gibco) supplemented with 1% Pen/Strep and 10% fetal bovine serum. The cells were maintained in an incubator at 37° C., 90% humidity, and 5% CO2 until reaching confluence over 5 days in 96-well transwell plates. Experiments were conducted using an HBSS donor buffer (Invitrogen) containing 10 mM HEPES and 15 mM glucose, adjusted to pH 7.4. The receiver well contained HBSS buffer supplemented with 1% BSA, 10 mM HEPES, and 15 mM glucose, and the pH was adjusted to 7.4. TEER values were measured to assess membrane integrity after an initial equilibration with BSA-free transport buffer for 15 minutes. The experiment was started by adding dosing solutions containing test compounds at 1 μM. Cells were dosed on the apical (A) side or basolateral (B) side at 100 μl and 200 μl, respectively, to determine forward (A to B) and reverse (B to A) permeability. At the 2-hour time point, 50 μl samples were collected from the receiver compartment. Each compound was tested in 2 separate replicate wells for each condition. All samples were immediately collected into plates, and 50 μL of acetonitrile was added. Subsequently, 350 μl of 30:70 methanol: acetonitrile containing internal standard was added to precipitate proteins and stabilize the test compounds. To test for non-specific binding and compound instability, the total amount of the drug was quantified at the end of the experiment and compared to the material present in the original dosing solution as a percentage of the recovery. All samples were analyzed by LC-MS/MS using electrospray ionization.
(§2) The apparent permeability, Papp, and % recovery were calculated as follows: […]

Series [2] concerns the target T2, BCRP (Homo sapiens, UniProt Q9UNQ0).
T2 construct: host or cells: MDCK cells with canine Pgp knocked out and BCRP knocked in (cPgp-KO-BCRP-KI)
T2 sequence (Q9UNQ0 1-655): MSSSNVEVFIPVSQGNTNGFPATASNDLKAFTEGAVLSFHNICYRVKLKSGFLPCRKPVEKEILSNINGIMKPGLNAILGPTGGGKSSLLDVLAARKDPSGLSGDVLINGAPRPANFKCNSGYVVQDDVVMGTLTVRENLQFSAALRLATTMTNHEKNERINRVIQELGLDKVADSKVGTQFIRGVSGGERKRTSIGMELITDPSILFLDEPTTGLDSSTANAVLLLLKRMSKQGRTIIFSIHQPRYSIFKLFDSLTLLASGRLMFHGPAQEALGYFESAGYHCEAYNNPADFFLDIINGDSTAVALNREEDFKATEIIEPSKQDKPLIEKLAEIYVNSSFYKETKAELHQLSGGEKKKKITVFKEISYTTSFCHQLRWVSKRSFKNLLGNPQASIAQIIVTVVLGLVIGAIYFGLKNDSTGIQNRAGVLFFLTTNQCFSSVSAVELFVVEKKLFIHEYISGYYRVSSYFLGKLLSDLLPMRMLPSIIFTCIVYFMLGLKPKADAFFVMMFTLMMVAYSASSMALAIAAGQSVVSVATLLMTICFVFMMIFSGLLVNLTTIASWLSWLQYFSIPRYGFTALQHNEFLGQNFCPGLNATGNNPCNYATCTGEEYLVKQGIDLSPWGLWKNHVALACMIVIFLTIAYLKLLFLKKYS
Briefly: MDR1/BCRP assay: efflux ratio in cPgp-KO-BCRP-KI cells. Type of series: in vitro ADME. As to conditions: dog, efflux ratio Papp (B-to-A)/Papp (A-to-B), 2-hour time point, read-out: cPgp-KO-BCRP-KI (ER). On the procedure:
as §1, §2

Series [3] can be described thus: Cell viability assay (CellTitre-Glo), HCT116 WT. Type of series: cell-based. Conditions: human; HCT116 WT cells, 7 days of treatment, CTG luminescence. How it is done: (§3) Control compounds were analyzed in parallel each time for quality control.
(§4) In Brief, on Day-1, a serial dilution of stock compounds in DMSO was performed using BioMek liquid handlers and dispensed using Echo acoustic dispenser into 384 well plates. Both tool compounds and sample compounds were spotted in the same plate for a dose response of PRMT5 inhibitors. Compound plates were stored as frozen until the cells were ready for seeding.
(§5) On Day 0, 100 HCT WT or HCT116 MTAP-deleted cells were seeded in compound-containing 384 well plates (50 μl per well) in RPMI 1640 media supplemented with 10% heat inactivated fetal bovine serum, Glutamax and penicillin streptomycin using EL460 liquid dispenser 5 μl cassette (BioTek, part no. 7170011). After equilibrating the plate in room temperature, the cells were incubated for 7 days inside the sealed incubator set at 37° C. with […] and 5% CO2.
(§6) On Day 7, the viability of cells was measured using a CTG assay kit (CellTitre-Glo; Promega cat no. G7573). Shortly, 40 μl per well of luminescent cell viability assay reagent were dispensed using EL460 liquid dispenser 5 μl cassette. CTG luminescence signal was measured using an EnVision plate reader (PerkinElmer) in accordance with manufacturer's instruction. The CC50 values for each compound after 7 days of treatment were calculated using 4 parameter non-linear logistical curve fit.

Series [4] concerns HCT116 MTAP-deleted cell lines. Briefly: Cell viability assay (CellTitre-Glo), HCT116 MTAP-deleted. The series is classed as cell-based. As to conditions: for CC50: Homo sapiens, HCT-116, 168 h, HCT116 MTAP-deleted cells, 7 days of treatment, CTG luminescence, read-out: MTAP^del HCT116 CC50; for Selectivity: WT HCT116 CC50 versus MTAP^del HCT116 CC50. On the procedure:
as §3, §4, §5, §6

The nature of series [5]: MDR1/BCRP assay: permeability in cPgp-KO-MDCK-WT cells. The series is classed as in vitro ADME. Conditions: dog, test compounds at 1 μM, 2-hour time point, pH 7.4. On the procedure: as §1, §2

Molecules are shown by their SMILES.

Usually CC50 stands for the concentration giving 50% cytotoxicity. As a reminder, the Papp A→B is how fast a substance crosses the layer from the apical side. Low values mean slow passage, high ones fast passage.

T1 sequence (P08183 whole entry): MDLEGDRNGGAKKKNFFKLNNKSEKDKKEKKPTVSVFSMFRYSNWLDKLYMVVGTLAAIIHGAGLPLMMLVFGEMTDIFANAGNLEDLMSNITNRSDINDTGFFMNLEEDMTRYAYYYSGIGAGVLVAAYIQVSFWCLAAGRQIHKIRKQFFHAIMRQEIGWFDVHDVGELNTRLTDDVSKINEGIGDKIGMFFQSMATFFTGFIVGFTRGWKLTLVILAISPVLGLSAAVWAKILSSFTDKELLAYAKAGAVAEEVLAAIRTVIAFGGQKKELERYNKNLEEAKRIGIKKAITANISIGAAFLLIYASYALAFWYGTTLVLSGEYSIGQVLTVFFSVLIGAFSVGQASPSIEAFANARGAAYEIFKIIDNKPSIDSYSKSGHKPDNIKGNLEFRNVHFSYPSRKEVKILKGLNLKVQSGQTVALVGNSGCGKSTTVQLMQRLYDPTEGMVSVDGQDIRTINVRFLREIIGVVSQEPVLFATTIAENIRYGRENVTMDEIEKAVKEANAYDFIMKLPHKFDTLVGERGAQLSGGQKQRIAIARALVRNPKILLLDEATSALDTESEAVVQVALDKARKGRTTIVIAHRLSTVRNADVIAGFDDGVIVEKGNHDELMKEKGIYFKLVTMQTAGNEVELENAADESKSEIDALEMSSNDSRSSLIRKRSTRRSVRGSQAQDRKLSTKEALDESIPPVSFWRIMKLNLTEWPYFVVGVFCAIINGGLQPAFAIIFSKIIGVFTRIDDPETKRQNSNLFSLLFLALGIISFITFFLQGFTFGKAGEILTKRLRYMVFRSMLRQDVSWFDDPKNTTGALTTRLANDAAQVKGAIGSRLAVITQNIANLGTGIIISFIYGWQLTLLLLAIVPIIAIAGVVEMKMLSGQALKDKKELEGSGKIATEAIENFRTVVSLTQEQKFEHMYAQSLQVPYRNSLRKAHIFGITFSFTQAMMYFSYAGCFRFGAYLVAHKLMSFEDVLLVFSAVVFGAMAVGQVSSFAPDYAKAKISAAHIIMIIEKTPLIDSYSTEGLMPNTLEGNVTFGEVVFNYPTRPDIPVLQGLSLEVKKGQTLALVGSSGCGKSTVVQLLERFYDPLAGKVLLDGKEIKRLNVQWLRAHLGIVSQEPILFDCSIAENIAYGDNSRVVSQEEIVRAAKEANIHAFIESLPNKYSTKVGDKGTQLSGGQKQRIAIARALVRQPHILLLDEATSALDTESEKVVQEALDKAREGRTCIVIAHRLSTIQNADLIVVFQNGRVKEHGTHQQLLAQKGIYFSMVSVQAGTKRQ

Regarding `Cn1ncc2c(NC(=O)C(=O)N3CCC[C@@H]4Oc5cc(C(F)(F)F)cc(F)c5[C@@H]43)cnc(N)c21` [Example Ca-1, N-(7-amino-1-methyl-1H-pyrazolo[3,4-c]pyridin-4-yl)-2-((4aS,9bS)-9-fluoro-7-(trifluoromethyl)-3,4,4a,9b-tetrahydrobenzofuro[3,2-b]pyridin-1(2H)-yl)-2-oxoacetamide], the efflux ratio at 2 h, 1 μM in series [1] came out at 1; in series [2], 0.7. In addition, the CC50 at 7 days in series [3] was 1030 nM. The CC50 in series [4] turned out to be 10 nM. Besides, the Selectivity in series [4] is given as 103. Further, in series [5], the Papp A→B at 2 h, 1 µM stood at 12 ×10⁻⁶ cm/s.
Take `Cn1ncc2c(NC(=O)C(=O)N3CC[C@H]4C[C@@H]3c3c(F)cc(C(F)(F)F)cc3O4)cnc(N)c21` [Example Ca-11, N-(7-amino-1-methyl-1H-pyrazolo[3,4-c]pyridin-4-yl)-2-((2S,6R)-7-fluoro-9-(trifluoromethyl)-3,4-dihydro-2H-2,6-methanobenzo[b][1,5]oxazocin-5(6H)-yl)-2-oxoacetamide]: the efflux ratio at 2 h, 1 μM in series [1] stood at 1.4. In addition, the efflux ratio at 2 h, 1 μM in series [2] is 1.3. Also, in series [3], the CC50 at 7 days turned out to be 2070 nM. In addition, in series [4], the half-maximal cytotoxic concentration (CC50) stood at 18 nM and the Selectivity was found to be 115. Besides, the Papp A→B at 2 h, 1 µM in series [5] worked out at 10.7 ×10⁻⁶ cm/s.
On to `C[C@H]1CN(C(=O)C(=O)Nc2cnc(N)c3c2cnn3C)[C@H]2c3ccc(C(F)(F)F)cc3C[C@H]2O1` [Example Ca-3, N-(7-amino-1-methyl-11H-pyrazolo[3,4-c]pyridin-4-yl)-2-((2S,4aS,9aR)-2-methyl-7-(trifluoromethyl)-2,3,9,9a-tetrahydroindeno[2,1-b][1,4]oxazin-4(4aH)-yl)-2-oxoacetamide], for which the efflux ratio at 2 h, 1 μM in series [1] is 1.1. Moreover, in series [2], the efflux ratio at 2 h, 1 μM turned out to be 0.7. Further, the CC50 at 7 days in series [3] was found to be 2940 nM. Moreover, in series [4], the CC50 stood at 38 nM and the Selectivity worked out at 77. The Papp A→B at 2 h, 1 µM in series [5] was determined as 12.6 ×10⁻⁶ cm/s.
Take `C[C@@H]1CN(C(=O)C(=O)Nc2cnc(N)c3c2cnn3C)[C@H]2c3ccc(C(F)(F)F)cc3C[C@H]2O1` [Example Ca-10, N-(7-amino-1-methyl-1H-pyrazolo[3,4-c]pyridin-4-yl)-2-((2R,4aS,9aR)-2-methyl-7-(trifluoromethyl)-2,3,9,9a-tetrahydroindeno[2,1-b][1,4]oxazin-4(4aH)-yl)-2-oxoacetamide]: the efflux ratio at 2 h, 1 μM in series [1] amounted to 1; in series [2], 1.1. In series [3], this compound yielded a CC50 at 7 days of 2720 nM. For the same compound, the CC50 in series [4] is 28 nM. The same compound had a Selectivity in series [4] of 96. The compound further had an apparent permeability from apical to basolateral (Papp A→B) at 2 h, 1 µM in series [5] of 17.7 ×10⁻⁶ cm/s.
